Assay: molar heat capacity at constant pressure
Details: 101.33 kPa, Crystal, Small (less than 1 g) adiabatic calorimetry

[Ba+2].[Ce+4].[O-2].[O-2].[O-2] [barium cerium(IV) oxide]
Details | molar heat capacity at constant pressure [J/K/mol]
45.36 K | 25.5
46.27 K | 26.2
47.24 K | 26.9
48.19 K | 27.7
49.16 K | 28.5
50 K | 29.66
50.15 K | 29.4
51.15 K | 30.2
52.16 K | 31
53.16 K | 31.8
54.16 K | 32.6
55.16 K | 33.5
56.16 K | 34.3
57.16 K | 35.1
58.15 K | 35.9
59.14 K | 36.7
60 K | 37.42
60.13 K | 37.4
61.12 K | 38.2
62.11 K | 39
63.1 K | 39.7
64.09 K | 40.5
65.08 K | 41.3
66.07 K | 42
67.07 K | 42.8
68.06 K | 43.6
69.05 K | 44.3
70 K | 44.66
70.05 K | 45
71.04 K | 45.8
72.03 K | 46.6
73.03 K | 47.3
74.02 K | 47.8
75.02 K | 48.6
76.02 K | 49.2
77.02 K | 49.9
78.02 K | 50.6
79.01 K | 50.7
80 K | 51.2
80.01 K | 51.5
80.29 K | 51
81.69 K | 51.5
82.49 K | 52
83.31 K | 52.5
84.14 K | 53.1
84.98 K | 53.7
85.82 K | 54.2
86.68 K | 54.7
87.55 K | 55.3
88.43 K | 55.8
89.31 K | 56.3
90 K | 57.18
90.21 K | 56.9
91.11 K | 57.4
92.02 K | 58
92.94 K | 58.5
93.87 K | 59.1
94.81 K | 59.7
95.75 K | 60.2
96.71 K | 60.8
97.68 K | 61.3
98.65 K | 61.9
99.64 K | 62.4
100 K | 62.7
100.64 K | 63
101.64 K | 63.6
102.66 K | 64.1
103.69 K | 64.7
104.72 K | 65.2
105.77 K | 65.8
106.83 K | 66.4
107.9 K | 66.9
108.97 K | 67.4
110.06 K | 67.7
111.16 K | 68.5
112.27 K | 69.1
113.4 K | 69.7
114.53 K | 70.2
115.68 K | 70.8
116.83 K | 71.4
118 K | 71.9
119.18 K | 72.4
120 K | 72.61
120.37 K | 73
121.58 K | 73.5
122.79 K | 74
124.02 K | 74.6
125.26 K | 75.1
126.51 K | 75.7
127.77 K | 76.2
129.05 K | 76.8
130.34 K | 77.3
131.64 K | 77.9
132.96 K | 78.4
134.29 K | 78.9
135.63 K | 79.4
136.99 K | 79.9
138.36 K | 80.4
139.74 K | 80.9
140 K | 81.2
141.54 K | 81.6
142.95 K | 82.2
144.38 K | 82.8
145.83 K | 83.2
147.28 K | 83.8
148.76 K | 84.5
150.25 K | 85
151.75 K | 85.6
153.27 K | 86.1
154.8 K | 86.6
156.34 K | 87.3
157.91 K | 87.8
159.49 K | 88.2
160 K | 88.53
161.08 K | 88.9
162.69 K | 89.3
164.32 K | 89.9
165.96 K | 90.3
167.62 K | 90.8
169.3 K | 91.2
170.99 K | 91.8
172.7 K | 92.4
174.43 K | 92.9
176.17 K | 93.5
177.93 K | 94
179.71 K | 94.3
180 K | 94.63
181.5 K | 95.2
183.31 K | 95.3
185.15 K | 95.9
187 K | 96.4
188.86 K | 97.1
190.75 K | 97.8
192.65 K | 98
194.58 K | 98.2
196.52 K | 98.2
198.48 K | 98.6
200 K | 99.59
200.46 K | 99.2
202.45 K | 99.5
204.43 K | 100
206.42 K | 101
208.4 K | 101.1
210.39 K | 101.6
212.37 K | 101.7
214.35 K | 102.5
216.33 K | 102.8
218.31 K | 103.5
220 K | 103.6
220.3 K | 103.8
222.28 K | 103.6
224.26 K | 104.2
226.23 K | 105.1
228.22 K | 105
230.2 K | 105.5
232.17 K | 106.2
234.15 K | 106.2
236.14 K | 106.1
238.1 K | 106.8
240 K | 106.9
240.08 K | 106.6
242.05 K | 107.3
244.02 K | 107.1
245.99 K | 107.7
249.95 K | 108.3
251.89 K | 108.9
253.89 K | 109.5
255.86 K | 109.5
257.84 K | 109.2
259.8 K | 110.2
260 K | 109.9
261.77 K | 109.7
263.74 K | 110.1
267.67 K | 111
269.63 K | 110.4
271.61 K | 110.6
273.57 K | 111.4
275.53 K | 111.7
277.5 K | 111.9
279.46 K | 112.8
280 K | 112.6
281.42 K | 112.8
283.39 K | 112
285.35 K | 114
287.3 K | 114.2
289.27 K | 113.1
291.22 K | 113.8
293.17 K | 114.3
294.05 K | 113.5
297.48 K | 114.1
298.15 K | 114.8
299.16 K | 114.5
300 K | 114.9

Source: the NIST ThermoML archive (doi:10.1016/j.tca.2006.01.020)
